Test results: patent US20260176282A1, “BICYCLIC COMPOUNDS AS CDK INHIBITORS” (BEONE MEDICINES I GMBH, priority 2023, published 2026)
Where two headings read alike, the source gives them in different places.

What was measured:
CDK2/Cyclin E1 = CDK2/Cyclin E1 (Homo sapiens, UniProt P24941); test: CDK2/Cyclin E1 TR-FRET biochemical assay (1 mM ATP); conditions: 90 minutes reaction
Protocol: (§1) Compounds disclosed herein were tested for inhibition of CDK2/Cyclin E1 or CDK1/Cyclin B1 kinase in an assay based on the time-resolved fluorescence-resonance energy transfer (TR-FRET) methodology. The assay was carried out in 384-well low volume black plates in a reaction mixture containing CDK2/Cyclin E1 or CDK1/Cyclin B1, 1 mM ATP for CDK2/Cyclin E1 and CDK1/Cyclin B1, 0.15 μM Rb (Ser780)-biotin substrate and 0-10 μM compound in buffer containing 50 mM HEPES pH7.0, 0.02% NaN3, 0.01% BSA, 0.1 mM Orthovanadate, 50 mM MgCl2, 1 mM DTT and 0.005% Tween-20. The kinase was incubated with compound for 60 minutes at room temperature and the reaction was initiated by the addition of ATP and Rb (Ser780)-biotin substrate. After reaction at room temperature for 90 minutes, an equal volume of stop/detection solution was added according to the manufacture's instruction (Cisbio Bioassays). The stop/detection solution contained Streptavidin-XL665 and Anti-pRb (Ser780) mAb-Eu Cryptate in Detection buffer (Cisbio Bioassays). Plates were incubated at room temperature for 60 minutes, and the TR-FRET signals (ex337 nm, em665 nm/620 nm) were recorded on a PHERAstar FSX plate reader (BMG Labtech). The inhibition percentage of CDK2/Cyclin E1 or CDK1/Cyclin B1 kinase activity in presence of increasing concentrations of compounds was calculated based on the ratio of fluorescence at 665 nm to that at 620 nm. The IC50 for each compound was derived from fitting the data to the four-parameter logistic equation by Dotmatics.

HEK-293 cells = test: HEK-293 cell cytotoxicity detection (CellTiter-Glo); type: cell-based; conditions: incubation of 72 h, CellTiter-Glo luminescence
Protocol: HEK-293 cells were treated with compounds diluted in 0.4% DMSO, dilution was done according to the following protocol: (1) making 250× stock solution in DMSO from 10 mM by 4-fold dilution, total 8 doses were included; (2) making 2 solution in cell culture medium by transferring 1 μl 250× stock solution into 124 μl medium; (3) adding 50 μl of 2× solution to cells for incubation of 72 h.
25 μl of the CellTiter-Glo® Reagent [(PromegaCat #G9242)] was added to each well in the 96-well plate. The contents were mixed for 2 minutes on an orbital shaker to induce cell lysis. The plate was then allowed to incubate at room temperature for 10 minutes to stabilize luminescent signal. Luminescence was recorded on BMG PheraStar with luminescence protocol.
The IC50 value of a compound can be obtained by fitting the following equation: […]
Wherein, X and Y are known values, and IC50, Hillslope, Top and Bottom are the parameters obtained by fitting with software. Y is the inhibition percentage (calculated from the equation), X is the concentration of the compound; IC50 is the concentration of the compound when the 50% inhibition is reached. The smaller the IC50 value is, the stronger the inhibitory ability of the compound is. Vice versa, the higher the IC50 value is, the weaker the ability the inhibitory ability of the compound is; Hillslope represents the slope of the fitted curve, generally around 1*; Bottom represents the minimum value of the curve obtained by data fitting, which is generally 0%±20%; Top represents the maximum value of the curve obtained by data fitting, which is generally 100%±20%. The experimental data were fitted by calculating and analyzing with Dotmatics data analysis software.

CDK1/Cyclin B1 = CDK1/Cyclin B1 (Homo sapiens, UniProt P06493); test: CDK1/Cyclin B1 TR-FRET biochemical assay (1 mM ATP); conditions: 90 minutes reaction
Protocol: as §1

Sequence of CDK1/Cyclin B1 (P06493 whole entry): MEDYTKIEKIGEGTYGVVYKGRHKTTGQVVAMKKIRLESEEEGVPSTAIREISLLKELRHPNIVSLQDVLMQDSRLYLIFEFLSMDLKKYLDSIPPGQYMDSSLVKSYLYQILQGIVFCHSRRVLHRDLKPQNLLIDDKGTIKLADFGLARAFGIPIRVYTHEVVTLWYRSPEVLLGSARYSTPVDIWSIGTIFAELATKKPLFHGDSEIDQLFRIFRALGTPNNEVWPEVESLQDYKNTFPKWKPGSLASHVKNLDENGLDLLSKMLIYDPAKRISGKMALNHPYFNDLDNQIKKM
Sequence of CDK1/Cyclin B1 (P14635 whole entry partner): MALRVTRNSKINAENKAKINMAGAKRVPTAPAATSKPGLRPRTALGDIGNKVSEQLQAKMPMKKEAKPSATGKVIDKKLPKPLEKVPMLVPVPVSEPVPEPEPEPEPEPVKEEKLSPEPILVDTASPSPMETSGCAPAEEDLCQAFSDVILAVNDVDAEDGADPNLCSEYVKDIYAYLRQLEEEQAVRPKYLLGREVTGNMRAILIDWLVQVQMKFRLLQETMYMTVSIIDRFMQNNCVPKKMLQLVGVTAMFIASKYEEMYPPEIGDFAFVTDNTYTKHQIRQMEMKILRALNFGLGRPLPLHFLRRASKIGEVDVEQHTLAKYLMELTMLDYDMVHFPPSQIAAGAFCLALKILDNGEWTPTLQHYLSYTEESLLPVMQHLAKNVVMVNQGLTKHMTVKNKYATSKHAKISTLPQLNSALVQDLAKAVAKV

Row | Structure (SMILES) | IC50 (CDK2/Cyclin E1) | IC50 (CDK1/Cyclin B1) | IC50 (HEK-293 cells; Homo sapiens, HEK293, 72 h) | IC50 (HEK-293 cells; read-out: HEK293 IC50)
1 | O=C(NC1CCC1)O[C@H]1CC[C@@H](c2cc(Nc3ccc4c(c3F)CS(=O)(=O)C4)n[nH]2)C1 (relative stereo) [Example 12, cis-3-(3-((4-fluoro-2,2-dioxido-1,3-dihydrobenzo[c]thiophen-5-yl)amino)-1H-pyrazol-5-yl)cyclopentyl cyclobutylcarbamate] | 1.2 nM | 609 nM | 499 nM | 
2 | O=C(NC1COC1)O[C@H]1CC[C@@H](c2cc(Nc3ccc4c(c3F)CS(=O)(=O)C4)n[nH]2)C1 (relative stereo) [Example 20, cis-3-(3-((4-fluoro-2,2-dioxido-1,3-dihydrobenzo[c]thiophen-5-yl)amino)-1H-pyrazol-5-yl)cyclopentyl oxetan-3-ylcarbamate] | 31 nM | 4830 nM | > 10000 nM | 
3 | CN(C(=O)O[C@H]1CC[C@@H](c2cc(Nc3ccc4c(c3F)CS(=O)(=O)C4)n[nH]2)C1)C1CCOC1 (relative stereo) [Example 21, cis-3-(3-((4-fluoro-2,2-dioxido-1,3-dihydrobenzo[c]thiophen-5-yl)amino)-1H-pyrazol-5-yl)cyclopentyl methyl(tetrahydrofuran-3-yl)carbamate] | 24 nM | 2600 nM | > 10000 nM | 
4 | O=C(NCC(F)(F)F)O[C@H]1CC[C@@H](c2cc(Nc3ccc4c(c3F)CS(=O)(=O)C4)n[nH]2)C1 (relative stereo) [Example 22, cis-3-(3-((4-fluoro-2,2-dioxido-1,3-dihydrobenzo[c]thiophen-5-yl)amino)-1H-pyrazol-5-yl)cyclopentyl (2,2,2-trifluoroethyl)carbamate] | 4.5 nM | 1050 nM | > 10000 nM | 
5 | CC(C)NC(=O)O[C@H]1CC[C@@H](c2cc(Nc3cc4c(cc3F)CS(=O)(=O)C4)n[nH]2)C1 (relative stereo) [Example 27, cis-3-(3-((6-fluoro-2,2-dioxido-1,3-dihydrobenzo[c]thiophen-5-yl)amino)-1H-pyrazol-5-yl)cyclopentyl isopropylcarbamate] | 33 nM | 7450 nM | > 10000 nM | 
6 | Cc1cc2c(cc1Nc1cc([C@@H]3CC[C@H](OC(=O)NC(C)C)C3)[nH]n1)CS(=O)(=O)C2 (relative stereo) [Example 28, cis-3-(3-((6-methyl-2,2-dioxido-1,3-dihydrobenzo[c]thiophen-5-yl)amino)-1H-pyrazol-5-yl)cyclopentyl isopropylcarbamate] | 9.4 nM | 2900 nM | > 10000 nM | 
7 | CC(C)NC(=O)O[C@H]1CC[C@@H](c2cc(Nc3cc4c(cc3F)C[S+]([O-])C4)n[nH]2)C1 (relative stereo) [Example 29, cis-3-(3-((6-fluoro-2-oxido-1,3-dihydrobenzo[c]thiophen-5-yl)amino)-1H-pyrazol-5-yl)cyclopentyl isopropylcarbamate] | 576 nM | > 10000 nM | > 10000 nM | 
8 | CC(C)NC(=O)O[C@H]1CC[C@@H](c2cc(Nc3cc4c(cc3F)CSC4)n[nH]2)C1 (relative stereo) [Example 30, cis-3-(3-((6-fluoro-1,3-dihydrobenzo[c]thiophen-5-yl)amino)-1H-pyrazol-5-yl)cyclopentyl isopropylcarbamate] | 383 nM | > 10000 nM | > 10000 nM | 
9 | CC(C)NC(=O)O[C@H]1CC[C@@H](c2cc(Nc3ccc4c(c3F)C[S+]([O-])C4)n[nH]2)C1 (relative stereo) [Example 31, cis-3-(3-((4-fluoro-2-oxido-1,3-dihydrobenzo[c]thiophen-5-yl)amino)-1H-pyrazol-5-yl)cyclopentyl isopropylcarbamate] | 5.3 nM | 3360 nM | 1570 nM | 
10 | CCN(C)C(=O)O[C@H]1CC[C@@H](c2cc(Nc3ccc4c(c3F)CS(=O)(=O)C4)n[nH]2)C1 (relative stereo) [Example 32, cis-3-(3-((4-fluoro-2,2-dioxido-1,3-dihydrobenzo[c]thiophen-5-yl)amino)-1H-pyrazol-5-yl)cyclopentyl ethyl(methyl)carbamate] | 4.2 nM | 493 nM | > 10000 nM | 
11 | CC(C)NC(=O)O[C@H]1CC[C@@H](c2cc(Nc3ccc4c(c3F)CSC4)n[nH]2)C1 (relative stereo) [Example 33, cis-3-(3-((4-fluoro-1,3-dihydrobenzo[c]thiophen-5-yl)amino)-1H-pyrazol-5-yl)cyclopentyl isopropylcarbamate] | 22 nM | 4880 nM | > 10000 nM | 

These reach a lower IC50 (CDK2/Cyclin E1). Values come first.

Row | IC50 (CDK2/Cyclin E1) | IC50 (CDK1/Cyclin B1) | Structure (SMILES) | IC50 (HEK-293 cells; Homo sapiens, HEK293, 72 h) | IC50 (HEK-293 cells; read-out: HEK293 IC50)
12 | 0.7 nM | 155 nM | O=C(NCCC(F)(F)F)O[C@H]1CC[C@@H](c2cc(Nc3ccc4c(c3F)CS(=O)(=O)C4)n[nH]2)C1 (relative stereo) [Example 16, cis-3-(3-((4-fluoro-2,2-dioxido-1,3-dihydrobenzo[c]thiophen-5-yl)amino)-1H-pyrazol-5-yl)cyclopentyl (3,3,3-trifluoropropyl)carbamate] | 687 nM | 
13 | 0.8 nM | 181 nM | CC(C)(CO)NC(=O)O[C@H]1CC[C@@H](c2cc(Nc3ccc4c(c3F)CS(=O)(=O)C4)n[nH]2)C1 (relative stereo) [Example 19, cis-3-(3-((4-fluoro-2,2-dioxido-1,3-dihydrobenzo[c]thiophen-5-yl)amino)-1H-pyrazol-5-yl)cyclopentyl (1-hydroxy-2-methylpropan-2-yl)carbamate] | 201 nM | 
14 | 0.9 nM | 410 nM | O=C(NC1CCCC1)O[C@H]1CC[C@@H](c2cc(Nc3ccc4c(c3F)CS(=O)(=O)C4)n[nH]2)C1 (relative stereo) [Example 23, cis-3-(3-((4-fluoro-2,2-dioxido-1,3-dihydrobenzo[c]thiophen-5-yl)amino)-1H-pyrazol-5-yl)cyclopentyl cyclopentylcarbamate] | 2860 nM | 
15 | 0.4 nM | 169 nM | Cc1c(Nc2cc([C@@H]3CC[C@H](OC(=O)NC(C)C)C3)[nH]n2)ccc2c1CS(=O)(=O)C2 (relative stereo) [Example 35, cis-3-(3-((4-methyl-2,2-dioxido-1,3-dihydrobenzo[c]thiophen-5-yl)amino)-1H-pyrazol-5-yl)cyclopentyl isopropylcarbamate] | 739 nM | 
16 | 0.5 nM | 493 nM | CC1(NC(=O)OC2CCC(c3cc(Nc4ccc5c(c4F)CS(=O)(=O)C5)n[nH]3)C2)CCOC1 (single isomer, unassigned) [Example 13a, cis-3-(3-((4-fluoro-2,2-dioxido-1,3-dihydrobenzo[c]thiophen-5-yl)amino)-1H-pyrazol-5-yl)cyclopentyl (3-methyltetrahydrofuran-3-yl)carbamate] |  | 2150 nM
17 | 0.6 nM | 353 nM | CC1(NC(=O)OC2CCC(c3cc(Nc4ccc5c(c4F)CS(=O)(=O)C5)n[nH]3)C2)CCOC1 (single isomer, unassigned) [Example 13b, cis-3-(3-((4-fluoro-2,2-dioxido-1,3-dihydrobenzo[c]thiophen-5-yl)amino)-1H-pyrazol-5-yl)cyclopentyl (3-methyltetrahydrofuran-3-yl)carbamate] |  | 559 nM
18 | 0.5 nM | 208 nM | CC1(NC(=O)OC2CCC(c3cc(Nc4ccc5c(c4F)CS(=O)(=O)C5)n[nH]3)C2)CCOC1 (single isomer, unassigned) [Example 13c, cis-3-(3-((4-fluoro-2,2-dioxido-1,3-dihydrobenzo[c]thiophen-5-yl)amino)-1H-pyrazol-5-yl)cyclopentyl (3-methyltetrahydrofuran-3-yl)carbamate] |  | 1720 nM
